Experimental data: patent US10344060B2 (priority 2013, dated 2019)
Where two headings read alike, the source gives them in different places.

Assays:
hNav1.4 = hNav1.4 (Homo sapiens, UniProt P35499); experiment: cell-based; assay type: cell-based; conditions: for IC50: PatchXpress, read-out: PX hNav1.4 Tonic IC50; for Nav1.4/Nav1.7: ratio of PX tonic IC50 values
hNav1.7 = hNav1.7 (Homo sapiens, UniProt Q15858); experiment: cell-based; assay type: cell-based; conditions: for IC50: PatchXpress, read-out: PX hNav1.7 Tonic IC50
hNav1.7, sequence (Q15858 whole entry): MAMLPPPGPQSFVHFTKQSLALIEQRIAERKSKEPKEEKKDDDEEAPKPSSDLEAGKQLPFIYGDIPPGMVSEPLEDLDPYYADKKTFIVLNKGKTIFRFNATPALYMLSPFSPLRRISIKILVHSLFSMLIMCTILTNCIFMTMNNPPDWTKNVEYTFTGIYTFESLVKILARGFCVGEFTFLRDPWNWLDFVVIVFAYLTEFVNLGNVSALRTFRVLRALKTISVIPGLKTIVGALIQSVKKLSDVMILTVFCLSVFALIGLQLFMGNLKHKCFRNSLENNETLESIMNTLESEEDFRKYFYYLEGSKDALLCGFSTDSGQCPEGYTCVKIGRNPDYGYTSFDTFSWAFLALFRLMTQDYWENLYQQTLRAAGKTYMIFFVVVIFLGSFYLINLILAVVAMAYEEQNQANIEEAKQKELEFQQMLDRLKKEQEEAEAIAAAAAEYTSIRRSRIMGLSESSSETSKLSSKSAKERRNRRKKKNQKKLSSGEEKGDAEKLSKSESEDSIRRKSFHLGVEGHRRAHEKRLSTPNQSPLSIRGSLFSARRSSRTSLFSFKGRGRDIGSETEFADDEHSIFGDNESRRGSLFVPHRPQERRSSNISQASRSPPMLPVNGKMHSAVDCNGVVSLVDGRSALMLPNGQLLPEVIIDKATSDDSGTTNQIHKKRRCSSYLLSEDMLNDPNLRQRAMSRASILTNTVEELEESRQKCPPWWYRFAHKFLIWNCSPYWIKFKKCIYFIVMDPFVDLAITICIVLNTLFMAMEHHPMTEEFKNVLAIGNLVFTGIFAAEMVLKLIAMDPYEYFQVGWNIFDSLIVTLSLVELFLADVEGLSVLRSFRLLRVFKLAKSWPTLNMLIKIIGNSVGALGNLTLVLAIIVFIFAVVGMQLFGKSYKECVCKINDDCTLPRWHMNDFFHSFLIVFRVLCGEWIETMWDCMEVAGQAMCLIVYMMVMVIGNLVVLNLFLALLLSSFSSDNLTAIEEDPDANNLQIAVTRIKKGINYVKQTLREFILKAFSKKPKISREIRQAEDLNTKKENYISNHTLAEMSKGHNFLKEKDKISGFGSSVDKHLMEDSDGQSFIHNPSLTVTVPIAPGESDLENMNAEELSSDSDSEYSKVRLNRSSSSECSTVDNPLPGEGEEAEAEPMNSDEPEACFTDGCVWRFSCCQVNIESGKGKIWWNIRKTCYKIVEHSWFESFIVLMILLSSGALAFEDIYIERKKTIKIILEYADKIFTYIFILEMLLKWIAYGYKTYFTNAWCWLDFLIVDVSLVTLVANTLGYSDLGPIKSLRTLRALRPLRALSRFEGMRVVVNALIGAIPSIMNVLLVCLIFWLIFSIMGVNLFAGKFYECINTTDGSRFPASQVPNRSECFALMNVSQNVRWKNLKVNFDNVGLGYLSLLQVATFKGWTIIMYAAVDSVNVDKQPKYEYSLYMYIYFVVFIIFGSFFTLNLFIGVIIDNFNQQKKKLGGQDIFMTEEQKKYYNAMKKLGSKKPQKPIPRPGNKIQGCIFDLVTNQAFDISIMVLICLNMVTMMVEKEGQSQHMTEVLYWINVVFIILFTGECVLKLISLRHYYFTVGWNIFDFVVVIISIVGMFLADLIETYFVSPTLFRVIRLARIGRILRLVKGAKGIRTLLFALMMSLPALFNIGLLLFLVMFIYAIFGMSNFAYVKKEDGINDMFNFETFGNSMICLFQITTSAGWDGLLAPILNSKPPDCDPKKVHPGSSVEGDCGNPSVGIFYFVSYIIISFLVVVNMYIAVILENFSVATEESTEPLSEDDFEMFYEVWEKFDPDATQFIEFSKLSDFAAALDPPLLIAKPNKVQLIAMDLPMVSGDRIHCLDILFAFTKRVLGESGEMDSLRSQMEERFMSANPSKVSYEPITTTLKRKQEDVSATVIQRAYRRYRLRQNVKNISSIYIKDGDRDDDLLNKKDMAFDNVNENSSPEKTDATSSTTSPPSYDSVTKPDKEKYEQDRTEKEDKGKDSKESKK

hNav1.4, sequence (P35499 whole entry): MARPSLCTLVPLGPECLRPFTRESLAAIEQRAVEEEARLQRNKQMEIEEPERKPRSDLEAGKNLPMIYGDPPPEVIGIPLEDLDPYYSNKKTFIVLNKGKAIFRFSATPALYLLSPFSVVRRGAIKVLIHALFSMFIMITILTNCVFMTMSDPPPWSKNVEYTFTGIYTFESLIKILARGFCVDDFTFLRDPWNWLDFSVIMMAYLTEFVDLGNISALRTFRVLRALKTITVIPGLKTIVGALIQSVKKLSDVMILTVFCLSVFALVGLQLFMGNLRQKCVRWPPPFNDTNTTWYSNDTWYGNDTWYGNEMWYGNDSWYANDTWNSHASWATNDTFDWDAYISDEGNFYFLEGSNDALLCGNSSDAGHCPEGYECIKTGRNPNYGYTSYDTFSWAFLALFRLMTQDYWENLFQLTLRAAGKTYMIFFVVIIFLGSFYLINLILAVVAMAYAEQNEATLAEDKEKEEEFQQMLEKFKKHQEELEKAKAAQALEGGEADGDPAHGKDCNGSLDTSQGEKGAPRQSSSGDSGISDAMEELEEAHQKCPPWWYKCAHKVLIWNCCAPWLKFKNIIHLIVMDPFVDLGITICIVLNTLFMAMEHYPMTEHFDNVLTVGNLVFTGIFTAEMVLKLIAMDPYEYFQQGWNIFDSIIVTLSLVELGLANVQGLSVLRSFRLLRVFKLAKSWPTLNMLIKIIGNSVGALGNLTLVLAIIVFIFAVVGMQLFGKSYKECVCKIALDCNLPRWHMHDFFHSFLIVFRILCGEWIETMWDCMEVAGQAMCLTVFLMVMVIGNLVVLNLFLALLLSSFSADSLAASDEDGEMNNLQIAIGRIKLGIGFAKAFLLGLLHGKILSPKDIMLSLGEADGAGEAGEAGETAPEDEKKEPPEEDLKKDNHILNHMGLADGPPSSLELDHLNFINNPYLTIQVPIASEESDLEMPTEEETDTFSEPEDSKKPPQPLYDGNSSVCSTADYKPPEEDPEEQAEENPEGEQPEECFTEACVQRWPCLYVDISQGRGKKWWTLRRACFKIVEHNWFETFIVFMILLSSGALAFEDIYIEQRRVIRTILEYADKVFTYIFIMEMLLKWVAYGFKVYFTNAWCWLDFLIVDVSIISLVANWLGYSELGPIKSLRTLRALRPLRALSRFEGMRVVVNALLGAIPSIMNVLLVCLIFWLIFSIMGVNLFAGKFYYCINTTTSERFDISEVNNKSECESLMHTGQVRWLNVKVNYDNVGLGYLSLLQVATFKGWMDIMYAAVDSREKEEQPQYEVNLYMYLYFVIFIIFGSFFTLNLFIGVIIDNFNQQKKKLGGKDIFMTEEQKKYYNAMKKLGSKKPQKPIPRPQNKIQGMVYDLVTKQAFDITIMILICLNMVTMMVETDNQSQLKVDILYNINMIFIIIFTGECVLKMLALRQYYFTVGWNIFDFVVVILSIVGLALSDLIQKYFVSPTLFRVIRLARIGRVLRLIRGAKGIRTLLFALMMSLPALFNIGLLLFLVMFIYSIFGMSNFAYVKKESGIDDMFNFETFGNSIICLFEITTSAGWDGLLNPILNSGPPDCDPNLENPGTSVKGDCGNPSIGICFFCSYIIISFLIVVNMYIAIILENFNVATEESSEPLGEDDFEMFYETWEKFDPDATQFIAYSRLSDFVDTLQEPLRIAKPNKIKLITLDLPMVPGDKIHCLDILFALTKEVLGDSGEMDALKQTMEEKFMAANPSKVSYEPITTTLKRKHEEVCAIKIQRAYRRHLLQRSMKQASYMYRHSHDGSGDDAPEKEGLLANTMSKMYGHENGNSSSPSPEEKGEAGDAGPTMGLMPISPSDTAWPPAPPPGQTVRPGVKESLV

SMILES | IC50 (hNav1.4; Table 12, tonic block) | Nav1.4/Nav1.7 (hNav1.4; Table 12) | IC50 (hNav1.7; Table 12, tonic block) | IC50 (hNav1.4; tonic, Table 11) | IC50 (hNav1.7; tonic, Table 11) | Nav1.4/Nav1.7 (hNav1.7; ratio of PX tonic IC50 values, Table 11)
C#CC[C@H](N)C(=O)N[C@@H](CCC(=O)O)C(=O)N[C@H]1CSSC[C@@H]2NC(=O)[C@@H]3CSSC[C@@H](C(=O)N[C@@H](CCCNC(=N)N)C(=O)N[C@@H](CCCCN)C(=O)N[C@@H](CCC(=O)O)C(=O)N[C@H](C(N)=O)[C@@H](C)CC)NC(=O)[C@H](Cc4c[nH]c5ccccc45)NC(=O)[C@H](CC(C)C)NC(=O)[C@H](CCCCN)NC(=O)[C@H](CSSC[C@H](NC(=O)[C@H]([C@@H](C)O)NC(=O)[C@H](Cc4c[nH]c5ccccc45)NC(=O)[C@H](CCCC)NC(=O)[C@H](Cc4c[nH]c5ccccc45)NC(=O)[C@H](CCCCN)NC(=O)[C@H](CCC(N)=O)NC1=O)C(=O)N[C@@H](CC(=O)O)C(=O)N[C@@H](CCC(=O)O)C(=O)N[C@@H](CCCCN)C(=O)N[C@@H](CCCNC(=N)N)C(=O)N[C@@H](CCC(=O)O)C(=O)N3)NC(=O)[C@H](CCCNC(=N)N)NC(=O)[C@H](CC(C)C)NC(=O)CNC(=O)[C@H](CCC(=O)O)NC2=O [compound 751] | 1.92 µM | 189 | 0.0102 µM |  |  | 
C#CC[C@H](N)C(=O)N[C@@H](Cc1ccc(O)cc1)C(=O)N[C@H]1CSSC[C@@H]2NC(=O)[C@@H]3CSSC[C@@H](C(=O)N[C@@H](CCCNC(=N)N)C(=O)N[C@@H](CCCCN)C(=O)N[C@@H](CC(C)C)C(=O)N[C@H](C(N)=O)[C@@H](C)CC)NC(=O)[C@H](Cc4c[nH]c5ccccc45)NC(=O)[C@H](CC(C)C)NC(=O)[C@H](CCCCN)NC(=O)[C@H](CSSC[C@H](NC(=O)[C@H]([C@@H](C)O)NC(=O)[C@H](Cc4c[nH]c5ccccc45)NC(=O)[C@H](CCCC)NC(=O)[C@H](Cc4c[nH]c5ccccc45)NC(=O)[C@H](CCCCN)NC(=O)[C@H](CCC(N)=O)NC1=O)C(=O)N[C@@H](CC(=O)O)C(=O)N[C@@H](CO)C(=O)N[C@@H](CCCCN)C(=O)N[C@@H](CCCNC(=N)N)C(=O)N[C@@H](C)C(=O)N3)NC(=O)[C@H](CCCNC(=N)N)NC(=O)[C@H](CC(C)C)NC(=O)CNC(=O)[C@H](CCC(=O)O)NC2=O [compound 655] | 0.0259 µM | 9 | 0.00291 µM |  |  | 
C#CC[C@H](N)C(=O)N[C@@H](Cc1ccc(O)cc1)C(=O)N[C@H]1CSSC[C@@H]2NC(=O)[C@@H]3CSSC[C@@H](C(=O)N[C@@H](CCCNC(=N)N)C(=O)N[C@@H](CCCCN)C(=O)N[C@H](C(=O)N[C@H](C(N)=O)[C@@H](C)CC)[C@@H](C)CC)NC(=O)[C@H](Cc4c[nH]c5ccc(Br)cc45)NC(=O)[C@H](CC(C)C)NC(=O)[C@H](CCCCN)NC(=O)[C@H](CSSC[C@H](NC(=O)[C@H]([C@@H](C)O)NC(=O)[C@H](Cc4c[nH]c5ccccc45)NC(=O)[C@H](CCCC)NC(=O)[C@H](Cc4c[nH]c5ccccc45)NC(=O)[C@H](CCCCN)NC(=O)[C@H](CCC(N)=O)NC1=O)C(=O)N[C@@H](CC(=O)O)C(=O)N[C@@H](CO)C(=O)N[C@@H](CCCCN)C(=O)N[C@@H](CCCNC(=N)N)C(=O)N[C@@H](C)C(=O)N3)NC(=O)[C@H](CCCNC(=N)N)NC(=O)[C@H](CC(C)C)NC(=O)CNC(=O)[C@H](CCC(=O)O)NC2=O [compound 871] | 0.011 µM | 7 | 0.00166 µM |  |  | 
CC[C@H](C)[C@H](NC(=O)[C@@H](NC(=O)[C@H](CCC(=O)O)NC(=O)[C@H](CCCNC(=N)N)NC(=O)[C@@H]1CSSC[C@@H]2NC(=O)[C@H](C)NC(=O)[C@H](CCCNC(=N)N)NC(=O)[C@H](CCCCN)NC(=O)[C@H](CO)NC(=O)[C@H](CC(=O)O)NC(=O)[C@@H]3CSSC[C@H](NC(=O)[C@H](CCCNC(=N)N)NC(=O)[C@H](CC(C)C)NC(=O)CNC(=O)[C@H](CCC(=O)O)NC(=O)[C@H](CSSC[C@H](NC(=O)[C@@H](N)Cc4ccc(O)cc4)C(=O)N[C@@H](CCC(N)=O)C(=O)N[C@@H](CCCCN)C(=O)N[C@@H](Cc4c[nH]c5ccccc45)C(=O)N[C@@H](CCSC)C(=O)N[C@@H](Cc4c[nH]c5ccccc45)C(=O)N[C@@H]([C@@H](C)O)C(=O)N3)NC2=O)C(=O)N[C@@H](CCCCN)C(=O)N[C@@H](CC(C)C)C(=O)N[C@@H](Cc2c[nH]c3ccccc23)C(=O)N1)[C@@H](C)CC)C(N)=O [compound 68] |  |  |  | 0.324 µM | 0.0123 µM | 26
C#CC[C@H](N)C(=O)N[C@@H](Cc1ccc(O)cc1)C(=O)N[C@H]1CSSC[C@@H]2NC(=O)[C@@H]3CSSC[C@@H](C(=O)N[C@@H](CCCNC(=N)N)C(=O)N[C@@H](CCCCN)C(=O)N[C@@H](CCC(=O)O)C(=O)N[C@H](C(N)=O)[C@@H](C)CC)NC(=O)[C@H](Cc4c[nH]c5ccccc45)NC(=O)[C@H](CC4CCCCC4)NC(=O)[C@H](CCCCN)NC(=O)[C@H](CSSC[C@H](NC(=O)[C@H]([C@@H](C)O)NC(=O)[C@H](Cc4c[nH]c5ccccc45)NC(=O)[C@H](CCCC)NC(=O)[C@H](Cc4c[nH]c5ccccc45)NC(=O)[C@H](CCCCN)NC(=O)[C@H](CCC(N)=O)NC1=O)C(=O)N[C@@H](CC(=O)O)C(=O)N[C@@H](CO)C(=O)N[C@@H](CCCCN)C(=O)N[C@@H](CCCNC(=N)N)C(=O)N[C@@H](C)C(=O)N3)NC(=O)[C@H](CCCNC(=N)N)NC(=O)[C@H](CC(C)C)NC(=O)CNC(=O)[C@H](CCC(=O)O)NC2=O [compound 860] | 0.117 µM | 73 | 0.00161 µM |  |  | 
C#CC[C@H](N)C(=O)N[C@@H](Cc1ccc(O)cc1)C(=O)N[C@H]1CSSC[C@@H]2NC(=O)[C@@H]3CSSC[C@@H](C(=O)N[C@@H](CCCNC(=N)N)C(=O)N[C@@H](CCCCN)C(=O)N[C@@H](CCC(=O)O)C(=O)N[C@H](C(N)=O)[C@@H](C)CC)NC(=O)[C@H](Cc4c[nH]c5ccccc45)NC(=O)[C@H](CC(C)C)NC(=O)[C@H](CCCCN)NC(=O)[C@H](CSSC[C@H](NC(=O)[C@H]([C@@H](C)O)NC(=O)[C@H](Cc4c[nH]c5ccccc45)NC(=O)[C@H](CCCC)NC(=O)[C@H](Cc4c[nH]c5ccccc45)NC(=O)[C@H](CCCCN)NC(=O)[C@H](CCC(N)=O)NC1=O)C(=O)N[C@@H](CC(=O)O)C(=O)N[C@@H](CO)C(=O)N[C@@H](CCC(=O)O)C(=O)N[C@@H](CCCNC(=N)N)C(=O)N[C@@H](C)C(=O)N3)NC(=O)[C@H](CCCNC(=N)N)NC(=O)[C@H](CC(C)C)NC(=O)CNC(=O)[C@H](CCCCN)NC2=O [compound 728] | 0.405 µM | 46 | 0.00876 µM |  |  | 
C#CC[C@H](N)C(=O)N[C@@H](Cc1ccc(O)cc1)C(=O)N[C@H]1CSSC[C@@H]2NC(=O)[C@@H]3CSSC[C@@H](C(=O)N[C@@H](CCCNC(=N)N)C(=O)N[C@@H](CCCCN)C(=O)N[C@@H](CCC(=O)O)C(=O)N[C@H](C(N)=O)[C@@H](C)CC)NC(=O)[C@H](Cc4c[nH]c5ccccc45)NC(=O)[C@H](C4CCCCC4)NC(=O)[C@H](CCCCN)NC(=O)[C@H](CSSC[C@H](NC(=O)[C@H]([C@@H](C)O)NC(=O)[C@H](Cc4c[nH]c5ccccc45)NC(=O)[C@H](CCCC)NC(=O)[C@H](Cc4c[nH]c5ccccc45)NC(=O)[C@H](CCCCN)NC(=O)[C@H](CCC(N)=O)NC1=O)C(=O)N[C@@H](CC(=O)O)C(=O)N[C@@H](CO)C(=O)N[C@@H](CCCCN)C(=O)N[C@@H](CCCNC(=N)N)C(=O)N[C@@H](C)C(=O)N3)NC(=O)[C@H](CCCNC(=N)N)NC(=O)[C@H](CC(C)C)NC(=O)CNC(=O)[C@H](CCC(=O)O)NC2=O [compound 859] | 0.177 µM | 361 | 0.000489 µM |  |  | 
C#CC[C@H](N)C(=O)N[C@@H](Cc1ccc(O)cc1)C(=O)N[C@H]1CSSC[C@@H]2NC(=O)[C@@H]3CSSC[C@@H](C(=O)N[C@@H](CCCNC(=N)N)C(=O)N[C@@H](CCCCN)C(=O)N[C@@H](CCC(=O)O)C(=O)N[C@H](C(N)=O)[C@@H](C)CC)NC(=O)[C@H](Cc4c[nH]c5ccccc45)NC(=O)[C@H](CC(C)C)NC(=O)[C@H](CCCCN)NC(=O)[C@H](CSSC[C@H](NC(=O)[C@H]([C@@H](C)O)NC(=O)[C@H](Cc4ccccc4)NC(=O)[C@H](CCCC)NC(=O)[C@H](Cc4c[nH]c5ccccc45)NC(=O)[C@H](CCCCN)NC(=O)[C@H](CCC(N)=O)NC1=O)C(=O)N[C@@H](CC(=O)O)C(=O)N[C@@H](CO)C(=O)N[C@@H](CCCCN)C(=O)N[C@@H](CCCNC(=N)N)C(=O)N[C@@H](C)C(=O)N3)NC(=O)[C@H](CCCNC(=N)N)NC(=O)[C@H](CC(C)C)NC(=O)CNC(=O)[C@H](CCC(=O)O)NC2=O [compound 848] | 1.01 µM | 80 | 0.0126 µM |  |  | 
C#CC[C@H](N)C(=O)N[C@@H](Cc1ccc(O)cc1)C(=O)N[C@H]1CSSC[C@@H]2NC(=O)[C@@H]3CSSC[C@@H](C(=O)N[C@@H](CCCNC(=N)N)C(=O)N[C@@H](CCCCN)C(=O)N[C@@H](CCC(=O)O)C(=O)N[C@@H](CC4CCCCC4)C(N)=O)NC(=O)[C@H](Cc4c[nH]c5ccccc45)NC(=O)[C@H](CC(C)C)NC(=O)[C@H](CCCCN)NC(=O)[C@H](CSSC[C@H](NC(=O)[C@H]([C@@H](C)O)NC(=O)[C@H](Cc4c[nH]c5ccccc45)NC(=O)[C@H](CCCC)NC(=O)[C@H](Cc4c[nH]c5ccccc45)NC(=O)[C@H](CCCCN)NC(=O)[C@H](CCC(N)=O)NC1=O)C(=O)N[C@@H](CC(=O)O)C(=O)N[C@@H](CO)C(=O)N[C@@H](CCCCN)C(=O)N[C@@H](CCCNC(=N)N)C(=O)N[C@@H](C)C(=O)N3)NC(=O)[C@H](CCCNC(=N)N)NC(=O)[C@H](CC(C)C)NC(=O)CNC(=O)[C@H](CCC(=O)O)NC2=O [compound 862] | 0.0366 µM | 62 | 0.000593 µM |  |  | 
C#CC[C@H](N)C(=O)N[C@H]1CSSC[C@@H]2NC(=O)[C@@H]3CSSC[C@@H](C(=O)N[C@@H](CCCNC(=N)N)C(=O)N[C@@H](CCCCN)C(=O)N[C@@H](CCC(=O)O)C(=O)N[C@H](C(N)=O)[C@@H](C)CC)NC(=O)[C@H](Cc4c[nH]c5ccccc45)NC(=O)[C@H](CC(C)C)NC(=O)[C@H](CCCCN)NC(=O)[C@H](CSSC[C@H](NC(=O)[C@H]([C@@H](C)O)NC(=O)[C@H](Cc4c[nH]c5ccccc45)NC(=O)[C@H](CCCC)NC(=O)[C@H](Cc4c[nH]c5ccccc45)NC(=O)[C@H](CCCCN)NC(=O)[C@H](CCC(N)=O)NC1=O)C(=O)N[C@@H](CC(=O)O)C(=O)N[C@@H](CO)C(=O)N[C@@H](CCCCN)C(=O)N[C@@H](CCCNC(=N)N)C(=O)N[C@@H](C)C(=O)N3)NC(=O)[C@H](C(C)C)NC(=O)[C@H](CC(C)C)NC(=O)CNC(=O)[C@H](CCC(=O)O)NC2=O [compound 1688] | 1.12 µM | 280 | 0.00399 µM |  |  | 
